The target of the assay is T1, PRMT1 (Homo sapiens, UniProt Q99873).
T1 construct: GST-tagged PRMT1; made in house; host or cells: High Five insect cells (baculovirus)
The assay can be described thus: PRMT1 Biochemical Assay (3H-SAM Flashplate, peptide substrate). The following applies: 30 min preincubation, room temperature. The text has this: S-adenosylmethionine (SAM), S-adenosylhomocysteine (SAH), bicine, Tween20, dimethylsulfoxide (DMSO), bovine skin gelatin (BSG), and Tris(2-carboxyethyl)phosphine hydrochloride solution (TCEP) were purchased from Sigma-Aldrich at the highest level of purity possible. ^3H-SAM was purchase from American Radiolabeled Chemicals with a specific activity of 80 Ci/mmol. 384-well streptavidin Flashplates were purchased from PerkinElmer.
Peptide representative of human histone H4 residues 36-50 was synthesized with an N-terminal linker-affinity tag motif and a C-terminal amide cap by 21st Century Biochemicals. The peptide was purified by high-performance liquid chromatography (HPLC) to greater than 95% purity and confirmed by liquid chromatography mass spectrometry (LC-MS). The sequence was Biot-Ahx-[…]-amide (SEQ ID NO.: 1).
Full-length human PRMT1 isoform 1 (NM_001536.5) transcript clone was amplified from an HEK 293 cDNA library, incorporating flanking 5′ sequence encoding a FLAG tag ([…]) (SEQ ID NO.:2) fused directly to Met 1 of PRMT1. The amplified gene was subcloned into pFastBacI (Life Technologies) modified to encode an N-terminal GST tag and a TEV cleavage sequence ([…] […] […] […]) (SEQ ID NO.:3) fused to Asp of the Flag tag of PRMT1.
Recombinant baculovirus were generated according to Bac-to-Bac kit instructions (Life Technologies). Protein over-expression was accomplished by infecting exponentially growing High Five insect cell culture at 1.5×10^6 cell/ml with 1:100 ratio of virus. Infections were carried out at 27° C. for 48 hours, harvested by centrifugation, and stored at −80° C. for purification.
General Procedure for PRMT1 Enzyme Assays on Peptide Substrates.
The assays were all performed in a buffer consisting of 20 mM Bicine (pH=7.6), 1 mM TCEP, 0.005% BSG, and 0.002% Tween 20, prepared on the day of use. Compounds in 100% DMSO (1 ul) were spotted into a polypropylene 384-well V-bottom plates (Greiner) using a Platemate Plus outfitted with a 384-channel head (Thermo Scientific). DMSO (1 ul) was added to Columns 11, 12, 23, 24, rows A-H for the maximum signal control and 1 ul of SAH, a known product and inhibitor of PRMT1, was added to columns 11, 12, 23, 24, rows I-P for the minimum signal control. A cocktail (40 ul) containing the PRMT1 enzyme was added by Multidrop Combi (Thermo-Fisher). The compounds were allowed to incubate with PRMT1 for 30 min at room temperature, then a cocktail (10 ul) containing SAM and peptide was added to initiate the reaction (final volume=51 ul). The final concentrations of the components were as follows: PRMT1 was 0.5 nM, ^3H-SAM was 200 nM, non-radiolabeled SAM was 1.5 uM, peptide was 20 nM, SAH in the minimum signal control wells was 1 mM, and the DMSO concentration was 2%. The assays were stopped by the addition of non-radiolabeled SAM (10 ul) to a final concentration of 300 uM, which dilutes the ^3H-SAM to a level where its incorporation into the peptide substrate is no longer detectable. 50 ul of the reaction in the 384-well polypropylene plate was then transferred to a 384-well Flashplate and the biotinylated peptides were allowed to bind to the streptavidin surface for at least 1 hour before being washed once with 0.1% Tween20 in a Biotek ELx405 plate washer. The plates were then read in a PerkinElmer TopCount plate reader to measure the quantity of ^3H-labeled peptide bound to the Flashplate surface, measured as disintegrations per minute (dpm) or alternatively, referred to as counts per minute (cpm).
Where dpm=disintegrations per minute, cmpd=signal in assay well, and min and max are the respective minimum and maximum signal controls.
Where top and bottom are the normally allowed to float, but may be fixed at 100 or 0 respectively in a 3-parameter fit. The Hill Coefficient normally allowed to float but may also be fixed at 1 in a 3-parameter fit. Y is the % inhibition and X is the compound concentration.

Molecules are shown by their SMILES.

What is called IC50 is the concentration at which inhibition is half-maximal. A high value points to a need for much substance.

T1 sequence (Q99873 with tags, fused parts or gaps): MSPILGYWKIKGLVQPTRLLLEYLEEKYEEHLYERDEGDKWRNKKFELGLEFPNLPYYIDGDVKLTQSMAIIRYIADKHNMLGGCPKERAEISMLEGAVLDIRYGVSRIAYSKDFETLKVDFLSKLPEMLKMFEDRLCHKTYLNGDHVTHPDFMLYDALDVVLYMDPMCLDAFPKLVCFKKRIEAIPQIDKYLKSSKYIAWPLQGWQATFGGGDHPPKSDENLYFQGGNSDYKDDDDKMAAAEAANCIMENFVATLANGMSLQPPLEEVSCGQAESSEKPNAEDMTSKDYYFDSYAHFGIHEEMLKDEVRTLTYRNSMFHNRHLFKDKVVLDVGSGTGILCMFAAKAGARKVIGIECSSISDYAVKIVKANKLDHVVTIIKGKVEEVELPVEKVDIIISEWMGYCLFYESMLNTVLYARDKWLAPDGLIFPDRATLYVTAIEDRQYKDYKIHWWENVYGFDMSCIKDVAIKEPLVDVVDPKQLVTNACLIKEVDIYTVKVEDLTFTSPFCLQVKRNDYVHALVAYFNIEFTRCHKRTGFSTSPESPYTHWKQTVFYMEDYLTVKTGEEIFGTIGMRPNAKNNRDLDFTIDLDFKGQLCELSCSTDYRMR

For `CN(CCN)Cc1c[nH]nc1-c1ccsc1` [Compound 3], the 50% inhibitory concentration (IC50) was in the range of 0.101 to 1 µM.

For `CN(CCN)Cc1c[nH]nc1-c1cncnc1` [Compound 4], the 50% inhibitory concentration (IC50) was 0.101 to 1 µM.

`CN(CCN)Cc1c[nH]nc1-c1cccs1` [Compound 5] registered an IC50 of 0.101 to 1 µM. In turn, `CN(CCN)Cc1c[nH]nc1-c1ccco1` [Compound 6] had an IC50 of 0.101 to 1 µM. The same measure for `CN(CCN)Cc1c[nH]nc1-c1ccoc1` [Compound 7]: 0.101 to 1 µM; for `CN(CCN)Cc1c[nH]nc1-c1cnn(C)c1` [Compound 8]: 0.101 to 1 µM; for `CN(CCN)Cc1c[nH]nc1-c1ccc2scnc2c1` [Compound 9]: at most 0.1 µM. The same measure for `Cc1noc(C)c1-c1n[nH]cc1CN(C)CCN` [Compound 10]: at least 10 µM. `COc1ncc(-c2n[nH]cc2CN(C)CCN)cn1` [Compound 11] came in with an IC50 of 0.101 to 1 µM. As to `CN(CCN)Cc1c[nH]nc1-c1cn[nH]c1` [Compound 12], the 50% inhibitory concentration (IC50) fell in the range of 0.101 to 1 µM. The same measure for `CN(CCN)Cc1c[nH]nc1-c1cnc2[nH]ccc2c1` [Compound 13]: at most 0.1 µM; for `CN(CCN)Cc1c[nH]nc1-c1cc[nH]n1` [Compound 14]: 1.01 to 3 µM. Regarding `CN(CCN)Cc1c[nH]nc1-c1ccnn1C` [Compound 15], the IC50 fell in the range of 1.01 to 3 µM. `CCn1cc(-c2n[nH]cc2CN(C)CCN)cn1` [Compound 16] had an IC50 of at most 0.1 µM. The same measure for `CN(CCN)Cc1c[nH]nc1-c1cnn(-c2ccccc2)c1` [Compound 17]: at most 0.1 µM; for `CN(CCN)Cc1c[nH]nc1-c1cnn(CCO)c1` [Compound 18]: 0.101 to 1 µM; for `CN(CCN)Cc1c[nH]nc1-c1ccc2cnn(C)c2c1` [Compound 19, N^1-methyl-N^1-((3-(1-methyl-1H-indazol-6-yl)-1H-pyrazol-4-yl)methyl)ethane-1,2-diamine]: at most 0.1 µM.

Molecule `CN(CCN)Cc1c[nH]nc1-c1ccc2ncnn2c1` [Compound 20] displayed a concentration for half-maximal inhibition (IC50) of at most 0.1 µM. `CN(CCN)Cc1c[nH]nc1-c1ccc2nccn2c1` [Compound 21, N^1-((3-(imidazo[1,2-a]pyridin-6-yl)-1H-pyrazol-4-yl)methyl)-N^1-methylethane-1,2-diamine] yielded a 50% inhibitory concentration (IC50) of at most 0.1 µM. The same measure for `CC(C)n1cc(-c2n[nH]cc2CN(C)CCN)cn1` [Compound 22]: at most 0.1 µM; for `CC(C)Cn1cc(-c2n[nH]cc2CN(C)CCN)cn1` [Compound 23, N^1-((2′-isobutyl-3,4′-bi(1H-pyrazol)-4-yl)methyl)-N^1-methylethane-1,2-diamine]: at most 0.1 µM; for `CN(CCN)Cc1c[nH]nc1-c1cnn(Cc2ccccc2)c1` [Compound 24, N^1-((1′-benzyl-3,4′-bi(1H-pyrazol)-4-yl)methyl)-N^1-methylethane-1,2-diamine]: at most 0.1 µM.

Molecule `Cc1n[nH]c(C)c1-c1n[nH]cc1CN(C)CCN` [Compound 25] gave an IC50 of at least 10 µM. The same measure for `CN(CCN)Cc1c[nH]nc1-c1ccc2[nH]ncc2c1` [Compound 27, N^1-((3-(1H-indazol-5-yl)-1H-pyrazol-4-yl)methyl)-N^1-methylethane-1,2-diamine]: at most 0.1 µM; for `CN(CCN)Cc1c[nH]nc1-c1cnc(C2CC2)nc1` [Compound 28]: 0.101 to 1 µM; for `CN(CCN)Cc1c[nH]nc1-c1ccc[nH]1` [Compound 29]: 1.01 to 3 µM.

In turn, `CN(CCN)Cc1c[nH]nc1-c1cccc2[nH]ncc12` [Compound 30] showed a 50% inhibitory concentration (IC50) of 0.101 to 1 µM.

Values taken from US9630961B2, “Arginine methyltransferase inhibitors and uses thereof” (Epizyme, Inc., priority 2013, dated 2017).
